Consider 10 compounds from patent publication US11767295B2, “Isoindole derivative” (TIANJIN HEMAY PHARMACEUTICAL CO., LTD., priority 2018, dated 2023).

Common to all, as to type: in vivo
The subject of data set [1] is Phorbol ester (TPA)-induced ear swelling in mice. The data set can be described thus: Inhibition of phorbol ester (TPA)-induced ear swelling in mice (Biological Example 6). As to conditions: ICR mice, 5 hours after TPA modeling; for Ear Swelling Rate / Inhibitory Rate of Ear Swelling Degree: 2 mg/mouse on right ear; for Ear Swelling Rate: (right−left)/left ear weight; for Inhibitory Rate of Ear Swelling Degree: vs model and blank control; for Ear Swelling Degree: 50 mg/mL in acetone, 40 μL in 2 administrations (2 mg/mouse). As to the method: (§1) 72 male ICR mice were selected and divided into 9 groups. There were 8 mice in each group.
(§2) Before the test, the animals were grouped and the hair around the right ear of the mice was removed.
(§3) 20 μL of respective drug was applied to the animals in each test group (a blank solvent was applied to the model control group). Modeling and induction were carried out after 1 h 10 min. Except for the blank group, 20 μL of TPA at a concentration of 125 μg/mL were applied to the right ears of the animals for induction. After induction for 10 minutes, 20 μL of respective drug were applied to the right ears of the animals in each test group (a blank solvent was applied to the model control group).
After modeling for 5 hours, ear pieces of both sides at the same location of animals in each group were taken with a punch and weighed to calculate the ear swelling degree, ear swelling rate and inhibitory rate.
The ear swelling degree and ear swelling rate after modeling and administration for 5 hours were analyzed and tested with One-Way ANOVA multiple-group test index in SPSS17.0. […] Ear swelling degree (mg)=right ear weight (mg)−left ear weight (mg); Ear swelling rate (%)=(right ear weight−left ear weight)/left ear weight×100%; Inhibitory rate of ear swelling degree (%)=1−(swelling degree of drug administration group−swelling degree of blank control group)/(swelling degree of model control group−swelling degree of blank control group)×100%.

Data set [2] shares this test system. The data set can be described thus: Inhibition of phorbol ester (TPA)-induced ear swelling in mice (Biological Example 5). The note with it: ICR mice, 5 hours after TPA modeling; for Ear Swelling Rate / Inhibitory Rate of Ear Swelling Degree: 2 mg/mouse on right ear; for Ear Swelling Rate: (right−left)/left ear weight; for Inhibitory Rate of Ear Swelling Degree: vs model and blank control; for Ear Swelling Degree: 50 mg/mL in acetone, 40 μL in 2 administrations (2 mg/mouse). As to the method: as §1, §2, §3
After modeling for 5 hours, ear pieces of both sides on the same location of animals in each group were taken with a punch and weighed to calculate the ear swelling degree, ear swelling rate and inhibitory rate.
The ear swelling degree and ear swelling rate after modeling and administration for 5 hours were analyzed and tested with One-Way ANOVA multiple-group test index in SPSS17.0. P<0.05 indicated there were statistical differences. Ear swelling degree (mg)=right ear weight (mg)−left ear weight (mg); Ear swelling rate (%)=(right ear weight−left ear weight)/left ear weight×100%; Inhibitory rate of ear swelling degree (%)=1−(ear swelling degree of drug administration group−ear swelling degree of blank control group)/(ear swelling degree of model control group−ear swelling degree of blank control group)×100%.

The test system of data set [3] is DNCB-induced atopic dermatitis in Balb/c mice. Put plainly: Efficacy evaluation test of DNCB-induced atopic dermatitis in Balb/c mice model (Biological Example 2). As to conditions: BID × 10; for Inhibitory Rate of Ear Swelling / Weight Changes of Animals, Day 10 / Weight Changes of Animals, Day 17 / Weight Changes of Animals, Day 18 / Ear Swelling Degree / IgE Concentration / Inhibitory Rate of IgE Concentration: 1 mg/mouse on ear; for Inhibitory Rate of Ear Swelling / Ear Swelling Degree / IgE Concentration / Inhibitory Rate of IgE Concentration: 18th day; for Inhibitory Rate of Ear Swelling / Inhibitory Rate of IgE Concentration: vs model and blank control; for Weight Changes of Animals, Day 1 / Weight Changes of Animals, Day 10 / Weight Changes of Animals, Day 17 / Weight Changes of Animals, Day 18: Balb/c mice, Mean ± S.D.; for Weight Changes of Animals, Day 1: 1 mg/mouse (50 mg/mL, 20 μL) on ear; for Ear Swelling Degree: right minus left ear piece weight; for IgE Concentration / Inhibitory Rate of IgE Concentration: serum. As to the method:
70 healthy male SPF Balb/c mice, each of which the weight was 19-21 g, were randomly divided into 7 groups by body weight. There were 10 mice in each group.
(§4) Before the test, the hair around the right ear of the mouse was removed to reduce the interference in the drug adhesion to the hair.
The start of the test was recorded as Day 1. After the end of the 18th day of the test, blood was taken from each animal to detect the concentration of immunoglobulin (IgE) in the serum (in accordance with the kit instructions). Both ears of the animal were cut off. Ear pieces were cut by an 8 mm punch at the fixed position of the ears and weighed. Differences in the swelling degrees of two ears were calculated.
(§5) The IgE concentrations in the serum of different groups on the 18th day were analyzed and compared statistically with One-Way Anova in SPSS 17, respectively. The G test method was used to delete outliers. p<0.05 indicated there were statistical differences. Ear swelling degree (mg)=right ear weight (mg)−left ear weight (mg); Inhibitory rate of ear swelling degree (%)=1−(ear swelling degree of drug administration group−ear swelling degree of blank control group)/(ear swelling degree of model control group−ear swelling degree of blank control group)×100%; Inhibitory rate of IgE (%)=1−(IgE concentration in administration group−IgE concentration in blank control group)/(IgE concentration in model control group−IgE concentration in blank control group)×100%.

For data set [4] the test system is unchanged. The data set can be described thus: Efficacy evaluation test of DNCB-induced atopic dermatitis in Balb/c mice model (Biological Example 1). The note with it: BID × 10. The protocol: 60 healthy male SPF Balb/c mice, each of which the body weight was 19-21 g, were randomly divided into 6 groups by body weight. There were 10 mice in each group.
as §4
The start of the test was recorded as Day 1. The specific time for measuring ear thickness was slightly adjusted based on FIG. 1. After the end of the 18th day of the test, blood was taken from each animal to detect the concentration of immunoglobulin (IgE) in the serum (in accordance with the kit instructions). Both ears of the animal were cut off. Ear pieces were cut by an 8 mm punch at the fixed position of the ears and weighed. Differences in the swelling degrees of two ears were calculated.
as §5, with “The changes in mouse ear thickness and the ear weights of the same area and the IgE concentrations” for “The IgE concentrations”, “the serum among different groups” for “the serum of different groups”, “weight (mg); Ear thickness change (mm)=right ear thickness (mm)−left ear thickness (mm); Inhibitory rate” for “weight (mg); Inhibitory rate”, “rate of ear thickness change (%)=1−(ear thickness change of drug administration group−ear thickness change of blank control group)/(ear thickness change of model control group−ear thickness change of blank control group)×100%; Inhibitory rate of IgE (%)=1−(IgE” for “rate of IgE (%)=1−(IgE”

[5] abbreviates: Balb/c mice, 1 mg/mouse on ear, Day 10, Mean ± S.D.
[6] abbreviates: Balb/c mice, 1 mg/mouse on ear, Day 17, Mean ± S.D.
Setting [7] is: Balb/c mice, 1 mg/mouse on ear, Day 18, Mean ± S.D.

`COC(=O)CC(c1ccc(OC)c(OC2CCCC2)c1)N1C(=O)c2cccc(NC(C)=O)c2C1=O` (stereo not drawn) [Example 30, methyl 3-(4-acetamido-1,3-dioxoisoindolin-2-yl)-3-(3-cyclopentyloxy-4-methoxyphenyl)propionate]: in data set [1], the “Ear Swelling Rate” value turned out to be 85.0 ± 27.4 %, the “Inhibitory Rate of Ear Swelling Degree” value came out at 60.8% and the “Ear Swelling Degree” value was found to be 12.0 ± 3.5 mg.
Regarding `CCOc1cc(C(CC(=O)OC)N2C(=O)c3cccc(O)c3C2=O)ccc1OC` (stereo not drawn) [Example 32, methyl 3-(4-hydroxy-1,3-dioxoisoindolin-2-yl)-3-(3-ethoxy-4-methoxyphenyl)propionate], in data set [1], the “Ear Swelling Rate” value is 93.3 ± 28.1 %, the “Inhibitory Rate of Ear Swelling Degree” value was determined as 55.6% and the “Ear Swelling Degree” value worked out at 13.4 ± 4.0 mg.
In the case of `CCOc1cc(C(CC(=O)OC)N2C(=O)c3ccc(NC(C)=O)cc3C2=O)ccc1OC` (stereo not drawn) [Example 25, methyl 3-(5-acetamido-1,3-dioxoisoindolin-2-yl)-3-(3-ethoxy-4-methoxyphenyl)propionate], in data set [2], the “Ear Swelling Rate” value was 59.1 ± 17.5 %, the “Inhibitory Rate of Ear Swelling Degree” value is given as 73.6% and the “Ear Swelling Degree” value came to 8.5 ± 2.7 mg.
For the compound `CCOC(=O)C[C@H](c1ccc(OC)c(OCC)c1)N1C(=O)c2cccc(NC(C)=O)c2C1=O` [Example 51, ethyl (R)-3-(4-acetamido-1,3-dioxoisoindolin-2-yl)-3-(3-ethoxy-4-methoxyphenyl)propionate], in data set [3], the “Inhibitory Rate of Ear Swelling” value came out at 25.0%; the “Weight Changes of Animals, Day 1” value is reported as 21.8 ± 0.7 g; the “Weight Changes of Animals, Day 10” value was determined as 22.8 ± 1.2 g; the “Weight Changes of Animals, Day 17” value is on record as 23.1 ± 1.1 g. In data set [3], the “Weight Changes of Animals, Day 18” value was determined as 22.9 ± 1.3 g; the “Ear Swelling Degree” value was 21.7 ± 4.5 mg; the “IgE Concentration” value worked out at 6599.5 ± 2996.0 ng/mL; the “Inhibitory Rate of IgE Concentration” value is reported as 23.3%.
`CCOc1cc(C(CC(=O)OC)N2C(=O)c3cccc(N(C)C(C)=O)c3C2=O)ccc1OC` (stereo not drawn) [Example 24, methyl 3-(4-(N-methylacetamido)-1,3-dioxoisoindolin-2-yl)-3-(3-ethoxy-4-methoxyphenyl)propionate]: in data set [2], the “Ear Swelling Rate” value turned out to be 43.0 ± 11.8 %, the “Inhibitory Rate of Ear Swelling Degree” value came to 84.2% and the “Ear Swelling Degree” value amounted to 5.9 ± 1.7 mg.
For the compound `CCOC(=O)CC(c1ccc(OC)c(OCC)c1)N1C(=O)c2cccc(NC(C)=O)c2C1=O` (stereo not drawn) [Example 6, ethyl 3-(4-acetamido-1,3-dioxoisoindolin-2-yl)-3-(3-ethoxy-4-methoxyphenyl)propionate], in data set [3], the “Inhibitory Rate of Ear Swelling” value came out at 41.7%; the “Weight Changes of Animals, Day 1” value amounted to 21.4 ± 0.7 g; the “Weight Changes of Animals, Day 10” value is recorded as 22.8 ± 1.4 g; the “Weight Changes of Animals, Day 17” value amounted to 23.3 ± 1.4 g. Further, in data set [3], the “Weight Changes of Animals, Day 18” value stood at 22.7 ± 1.5 g; the “Ear Swelling Degree” value is reported as 17.1 ± 4.0 mg; the “IgE Concentration” value amounted to 5871.9 ± 2973.8 ng/mL; the “Inhibitory Rate of IgE Concentration” value stood at 32.8%. Moreover, in data set [2], the “Ear Swelling Rate” value is reported as 36.4 ± 11.9 %, the “Inhibitory Rate of Ear Swelling Degree” value is on record as 87.3% and the “Ear Swelling Degree” value worked out at 5.1 ± 1.6 mg.
As to `CCOc1cc(C(CC(=O)OC)N2C(=O)c3cccc(NC(C)=O)c3C2=O)ccc1OC1CCCC1` (stereo not drawn) [Example 20, methyl 3-(4-acetamido-1,3-dioxoisoindolin-2-yl)-3-(3-ethoxy-4-cyclopentyloxyphenyl)propionate], in data set [1], the “Ear Swelling Rate” value is 63.9 ± 19.3 %, the “Inhibitory Rate of Ear Swelling Degree” value was 73.0% and the “Ear Swelling Degree” value was found to be 8.8 ± 2.8 mg.
On to `CCOc1cc(C(CC(=O)OC)N2C(=O)c3cccc(NC(C)=O)c3C2=O)ccc1OC(C)C` (stereo not drawn) [Example 18, methyl 3-(4-acetamido-1,3-dioxoisoindolin-2-yl)-3-(3-ethoxy-4-isopropoxyphenyl)propionate], for which, in data set [1], the “Ear Swelling Rate” value came out at 33.9 ± 14.0 %, the “Inhibitory Rate of Ear Swelling Degree” value is 88.1% and the “Ear Swelling Degree” value turned out to be 4.8 ± 1.9 mg.
As to `COC(=O)CC(c1ccc(OC)c(OC)c1)N1C(=O)c2cccc(NC(C)=O)c2C1=O` (stereo not drawn) [Example 3, methyl 3-(4-acetamido-1,3-dioxoisoindolin-2-yl)-3-(3,4-dimethoxyphenyl)propionate], in data set [2], the “Ear Swelling Rate” value is listed as 42.1 ± 19.3 %, the “Inhibitory Rate of Ear Swelling Degree” value is 83.7% and the “Ear Swelling Degree” value is listed as 6.0 ± 2.5 mg. The “Inhibitory Rate of Ear Swelling Degree” value in data set [4] (1 mg/mouse on ear, 18th day, vs model and blank control) is 37.8%. For the same compound, in data set [4] (Balb/c mice, 1 mg/mouse (50 mg/mL, 20 μL) on ear, Day 1, Mean ± S.D.), the “Weight Changes of Animals, Day 1” value was 20.6 ± 0.8 g. Further, the “Inhibitory Rate of Ear Thickness” value in data set [4] (Balb/c mice, 1 mg/mouse on ear, 18th day, vs model and blank control) is 34.0%. In data set [4] (Balb/c mice, 1 mg/mouse on ear, Day 1, Mean ± S.D.), the “Ear Thickness Change, Day 1” value was determined as 0.21 ± 0.01 mm. Further, in data set [4] (setting [5]), the “Ear Thickness Change, Day 10” value is reported as 0.38 ± 0.10 mm and the “Weight Changes of Animals, Day 10” value is given as 22.3 ± 1.4 g. Besides, in data set [4] (setting [6]), the “Ear Thickness Change, Day 17” value was 0.58 ± 0.09 mm and the “Weight Changes of Animals, Day 17” value is 22.1 ± 1.8 g. Also, in data set [4] (setting [7]), the “Ear Thickness Change, Day 18” value is reported as 0.58 ± 0.10 mm and the “Weight Changes of Animals, Day 18” value amounted to 21.7 ± 1.8 g. The “Ear Thickness” value in data set [4] (Table 4, Balb/c mice, 1 mg/mouse on ear, 18th day) is listed as 0.58 ± 0.10 mm. Also, the “Ear Swelling Degree” value in data set [4] (right minus left ear piece weight (8 mm punch), 1 mg/mouse on ear, 18th day) worked out at 15.7 ± 4.5 mg. Further, the “IgE Concentration” value in data set [4] (serum, 1 mg/mouse on ear, 18th day) amounted to 6526.5 ± 2171.9 ng/mL. Further, the “Inhibitory Rate of IgE Concentration” value in data set [4] (serum, 1 mg/mouse on ear, 18th day, vs model and blank control) is 27.0%.
Consider `CCOc1cc(C(CC(=O)OC(C)C)N2C(=O)c3cccc(NC(C)=O)c3C2=O)ccc1OC` (stereo not drawn) [Example 12, isopropyl 3-(4-acetamido-1,3-dioxoisoindolin-2-yl)-3-(3-ethoxy-4-methoxyphenyl)propionate], for which, in data set [2], the “Ear Swelling Rate” value is 39.6 ± 14.0 %, the “Inhibitory Rate of Ear Swelling Degree” value came to 84.8% and the “Ear Swelling Degree” value is given as 5.8 ± 2.3 mg.
